Experiment [1] addresses T1, BK B2-Receptor in h-TM cells (Homo sapiens, UniProt P30411).
T1 construct: we discovered and pharmacologically characterized B2-receptor proteins in h-TM, h-CM and h-NPE cells; endogenous in cells; host or cells: primary human trabecular meshwork (h-TM) cells
T1 sequence (P30411 1-391): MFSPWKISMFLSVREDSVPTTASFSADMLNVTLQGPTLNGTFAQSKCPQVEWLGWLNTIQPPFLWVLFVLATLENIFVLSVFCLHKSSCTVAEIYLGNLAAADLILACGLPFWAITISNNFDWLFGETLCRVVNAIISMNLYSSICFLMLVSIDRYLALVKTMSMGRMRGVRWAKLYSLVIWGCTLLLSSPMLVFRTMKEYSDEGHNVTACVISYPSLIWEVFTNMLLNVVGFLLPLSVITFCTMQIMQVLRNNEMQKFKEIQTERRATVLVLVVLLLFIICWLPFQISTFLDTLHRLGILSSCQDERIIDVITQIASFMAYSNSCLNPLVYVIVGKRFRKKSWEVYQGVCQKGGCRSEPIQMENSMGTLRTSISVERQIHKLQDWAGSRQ
Description: Antagonism of BK-induced [Ca^2+]i mobilization in h-TM cells. It is filed as cell-based. The note with it: read-out: Antagonist Potency (Ki; nM) vs BK (10 nM) in [Ca^2+]i Mobilization Assay, mean ± SEM or individual experiments. The procedure:
(§1) Opthalmol. Vis. Res. 47: 4001-4019, 2006; Sharif et al., J. Ocular Pharmacol. Ther. 22: 291-309, 2006).
On the day of the experiment, one vial of FLIPR Calcium Assay Kit dye is re-suspended in 50 mL of a FLIPR buffer consisting of Hank's Balanced Salt Solution (HBSS), 20 mM HEPES, and 2.5 mM probenecid, pH 7.4. Cells are loaded with the calcium-sensitive dye by addition of an equal volume (50 μL) to each well of the 96-well plate and incubated with dye for 1 h at 23° C. After this time, the test compound plate and cell plate are placed in the FLIPR instrument. At the beginning of an experimental run, a signal test is performed to check the basal fluorescence signal from the dye-loaded cells and the uniformity of the signal across the plate. The basal fluorescence is adjusted between 8000-12000 counts by modifying the exposure time, the camera F-stop, or the laser power. […]
Fluorescence data are collected in real-time at 1.0 sec intervals for the first 60 secs and at 6.0 sec intervals for an additional 120 secs. […] The data are then analyzed using an automated, iterative, sigmoidal curve-fitting computer program to obtain the potency and intrinsic activities of the test agents as previously described (Sharif et al. J. Pharmacol. Exp. Ther. 286: 1094-1102, 1998; Sharif et al. Invest. Opthalmol. Vis. Sci. 39:2562-2571, 1998; Kelly et al. J. Pharmacol. Exp. Ther. 304: 238-245, 2003). […]

In experiment [2] the target is T2, BK B2-Receptor in h-CM cells (Homo sapiens, UniProt P30411).
T2 construct: we discovered and pharmacologically characterized B2-receptor proteins in h-TM, h-CM and h-NPE cells; endogenous in cells; host or cells: primary human ciliary muscle (h-CM) cells
T2 sequence (P30411 1-391): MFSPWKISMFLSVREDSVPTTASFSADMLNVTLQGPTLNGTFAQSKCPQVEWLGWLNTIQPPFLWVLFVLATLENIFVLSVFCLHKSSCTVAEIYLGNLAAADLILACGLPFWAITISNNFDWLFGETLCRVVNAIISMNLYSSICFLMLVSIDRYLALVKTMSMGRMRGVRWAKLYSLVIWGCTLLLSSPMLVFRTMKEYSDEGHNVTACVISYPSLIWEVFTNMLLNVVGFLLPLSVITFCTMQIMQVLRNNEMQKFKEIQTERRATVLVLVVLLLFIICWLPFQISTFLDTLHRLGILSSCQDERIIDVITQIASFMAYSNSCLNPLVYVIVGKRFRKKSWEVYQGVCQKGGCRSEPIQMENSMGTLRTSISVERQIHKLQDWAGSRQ
Nature of the experiment: Antagonism of BK-induced [Ca^2+]i mobilization in h-CM cells. The note with it: read-out: Antagonist Potency (Ki; nM) vs BK (10 nM) in [Ca^2+]i Mobilization Assay, mean ± SEM or individual experiments. It is filed as cell-based. As to the method:
as §1
(§2) On the day of the experiment, one vial of FLIPR Calcium Assay Kit dye is re-suspended in 50 mL of a FLIPR buffer consisting of Hank's Balanced Salt Solution (HBSS), 20 mM HEPES, and 2.5 mM probenecid, pH 7.4. Cells are loaded with the calcium-sensitive dye by addition of an equal volume (50 μL) to each well of the 96-well plate and incubated with dye for 1 h at 23° C. After this time, the test compound plate and cell plate are placed in the FLIPR instrument. At the beginning of an experimental run, a signal test is performed to check the basal fluorescence signal from the dye-loaded cells and the uniformity of the signal across the plate. The basal fluorescence is adjusted between 8000-12000 counts by modifying the exposure time, the camera F-stop, or the laser power. Instrument settings for a typical assay are the following: laser power 0.3-0.6 W, camera F-stop F/2, and exposure time 0.4 sec.
(§3) Fluorescence data are collected in real-time at 1.0 sec intervals for the first 60 secs and at 6.0 sec intervals for an additional 120 secs. […] The data are then analyzed using an automated, iterative, sigmoidal curve-fitting computer program to obtain the potency and intrinsic activities of the test agents as previously described (Sharif et al. J. Pharmacol. Exp. Ther. 286: 1094-1102, 1998; Sharif et al. Invest. Opthalmol. Vis. Sci. 39:2562-2571, 1998; Kelly et al. J. Pharmacol. Exp. Ther. 304: 238-245, 2003). The sources of materials and reagents for such assays can be found in the references cited above.

In experiment [3] the target is T3, BK B2-Receptor in h-NPE cells (Homo sapiens, UniProt P30411).
T3 construct: we discovered and pharmacologically characterized B2-receptor proteins in h-TM, h-CM and h-NPE cells; endogenous in cells; host or cells: immortalized human non-pigmented ciliary epithelial (h-NPE) cells
T3 sequence (P30411 1-391): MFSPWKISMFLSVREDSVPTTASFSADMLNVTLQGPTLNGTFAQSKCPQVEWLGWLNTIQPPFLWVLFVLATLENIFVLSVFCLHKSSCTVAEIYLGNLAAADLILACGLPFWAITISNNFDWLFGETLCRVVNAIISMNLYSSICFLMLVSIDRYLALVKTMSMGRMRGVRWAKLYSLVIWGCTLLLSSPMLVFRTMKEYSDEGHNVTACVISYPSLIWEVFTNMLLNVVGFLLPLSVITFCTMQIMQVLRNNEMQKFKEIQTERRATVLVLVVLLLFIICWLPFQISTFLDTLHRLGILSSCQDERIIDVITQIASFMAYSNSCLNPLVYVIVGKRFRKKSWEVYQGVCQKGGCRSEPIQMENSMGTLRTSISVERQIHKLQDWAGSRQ
Nature of the experiment: Antagonism of BK-induced [Ca^2+]i mobilization in immortalized h-NPE cells. It is filed as cell-based. The note with it: read-out: Antagonist Potency (Ki; nM) vs BK (10 nM) in [Ca^2+]i Mobilization Assay, mean ± SEM or individual experiments. As to the method:
as §1, §2, §3

The target of experiment [4] is T4, B2-receptors in h-NPE cells (Homo sapiens, UniProt P30411).
T4 construct: we discovered and pharmacologically characterized B2-receptor proteins in h-TM, h-CM and h-NPE cells; endogenous in cells; host or cells: immortalized human non-pigmented ciliary epithelial (h-NPE) cells
T4 sequence (P30411 1-391): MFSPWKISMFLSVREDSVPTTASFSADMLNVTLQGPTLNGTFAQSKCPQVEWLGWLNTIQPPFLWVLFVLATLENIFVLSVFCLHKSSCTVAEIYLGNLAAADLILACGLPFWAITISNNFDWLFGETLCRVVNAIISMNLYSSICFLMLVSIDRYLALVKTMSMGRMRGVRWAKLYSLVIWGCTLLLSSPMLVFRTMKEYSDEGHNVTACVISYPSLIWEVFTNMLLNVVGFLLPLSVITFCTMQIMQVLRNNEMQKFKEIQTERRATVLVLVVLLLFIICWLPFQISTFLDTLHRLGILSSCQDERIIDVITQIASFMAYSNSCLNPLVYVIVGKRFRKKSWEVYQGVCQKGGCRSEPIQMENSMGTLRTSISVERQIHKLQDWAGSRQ
Nature of the experiment: BK- and BK-related peptide-induced [Ca^2+]i mobilization in h-NPE cells (agonist potency). It is filed as cell-based. The note with it: BK = 100%, read-out: Intrinsic Activity (Emax, % max relative to BK).

Experiment [5] deals with Conscious Ocular Hypertensive Cynomolgus Monkey Eyes. Nature of the experiment: IOP response in conscious ocular hypertensive cynomolgus monkey eyes. It is filed as in vivo. The note with it: for % Change in IOP (mmHg): topical ocular 300 μg, mean ± SEM. The procedure:
Intraocular pressure (IOP) is determined with an Alcon Pneumatonometer (Alcon Laboratories, Inc., Fort Worth, Tex.) after light corneal anesthesia with 0.1% proparacaine. Right eyes are hypertensive as a result of laser trabeculoplasty. After a baseline IOP measurement, test compound is instilled in the right eyes only of 8-10 cynomolgus monkeys. Vehicle is instilled in the right eyes of 5-6 additional animals. […] IOP measurements are also taken on left eyes (normotensive and untreated) at each of these time points. The percent change in IOP from baseline is determined for each animal for every IOP measurement (Sharif et al. J. Ocular Pharmacol. Ther. 17: 305-317, 2001; May et al., J Pharmacol Exp Ther. 306: 301-309, 2003; Sharif et al. Invest. Opthalmol. Vis. Res. 47: 4001-4010, 2006). Group mean and standard error of the mean (SEM) are calculated for each time point. […] In cases where the compound of invention has poor ocular bioavailability, the compound may need to be administered intracamerally or intravitreally in order to observe the IOP-lowering efficacy.

Another experiment has as its system B1-receptor mRNA. Description: Microarray analysis of B1-receptor mRNA in TGFβ2-treated human TM cells. The note with it: Glaucomatous h-TM cells, control 0.99 ± 0.58. The format is cell-based.
In a further experiment the test system is B2-receptor mRNA. Nature of the experiment: Microarray analysis of B2-receptor mRNA in TGFβ2-treated human TM cells. It is filed as cell-based.

“And” between values parts separate entries of the source, which are not always exact repeats. Identical values can stand only once.

Four molecules from patent publication US8263555B2 (Alcon Research, Ltd., priority 2007, dated 2012) can be followed below.

Take `CC(=O)Nc1ccc(/C=C/C(=O)NCC(=O)N(C)c2ccc(Cl)c(COc3cccc4ccc(C)nc34)c2Cl)cn1` [FR-173657]: the Ki is 121 nM and 193 nM in experiment [1]; 35 nM and 11 nM in experiment [2]; 787 nM and 788 nM in experiment [3].

For the molecule `CSCC[C@H](N)C(=O)N[C@@H](CCCCN)C(=O)N[C@@H](CCCNC(=N)N)C(=O)N1CCC[C@H]1C(=O)N1CCC[C@H]1C(=O)NCC(=O)N[C@@H](Cc1ccccc1)C(=O)N[C@@H](CO)C(=O)N1CCC[C@H]1C(=O)N[C@@H](Cc1ccccc1)C(=O)N[C@@H](CCCNC(=N)N)C(=O)O` [Met-Lys-BK], the Emax in experiment [4] was 70 to 77%.

`CCCC[P+](CCCC)(CCCC)Cc1ccc(NC(=O)[C@H](Cc2ccc3ccccc3c2)NC(=NC2CCCCC2)NC2CCCCC2)cc1.[Cl-]` [WIN-64338]: the “% Change in IOP (mmHg)” value in experiment [5] (Dose 1/1 hr post-dose) is given as 1.7 ± 1.6%; in experiment [5] (Dose 1/3 hr post-dose), −10.4 ± 2.8%; in experiment [5] (Dose 1/6 hr post-dose), 1.3 ± 1.3%. Besides, the “modulation of IOP (in words)” value in experiment [5] (topically administered 300 μg, conscious cynomolgus monkeys) is recorded as “failed to modulate IOP”.

B1: TGFβ2: cytokine transforming growth factor-β2 (protein, UniProt P61812 303-414, looked up)
Transforming growth factor …: ALDAAYCFRNVQDNCCLRPLYIDFKRDLGWKWIHEPKGYNANFCAGACPYLWSSDTQHSRVLSLYNTINPEASASPCCVSQDLEPLTILYYIGKTPKIEQLSNMIVKSCKCS
Turning to B1, the “Normalized level of B1-receptor mRNA (GC-RMA, mean ± SEM)” value with B1-receptor mRNA (after 1.5 hr) is on record as 1.54 ± 0.09; in the experiment with B1-receptor mRNA (after 16 hr) it was 0.53 ± 0.05. Further, the “Normalized level of B2-receptor mRNA (GC-RMA, mean ± SEM)” value in the experiment on B2-receptor mRNA (Glaucomatous h-TM cells, after 1.5 hr, control 0.99 ± 0.04) was found to be 0.97 ± 0.06; in the experiment on B2-receptor mRNA (Glaucomatous h-TM cells, after 16 hr, control 0.99 ± 0.04), 0.24 ± 0.06; in the experiment on B2-receptor mRNA (Normal h-TM cells, after 1.5 hr, control 0.99 ± 0.06), 0.68 ± 0.05; with B2-receptor mRNA (Normal h-TM cells, after 16 hr, control 0.99 ± 0.06) it was 0.14 ± 0.11.

In general, Ki refers to the equilibrium dissociation constant of an inhibitor or competing ligand from its target. The term Emax denotes the greatest response seen or fitted, relative to the assay's reference.
